This is an account of results in patent publication US6579881B2 (Eisai Co., Ltd., priority 1997, dated 2003).

One assay has as its target serotonin 2 receptor (Rattus norvegicus, UniProt P14842). Briefly: Binding test on [3H] ketanserin (serotonin 2 receptor). The following applies: [3H] ketanserin 0.3 nM, receptor fraction of rat cerebral cortex; read-out: 5HT2.
Another assay deals with T1, serotonin 1A receptor (Rattus norvegicus, UniProt P19327).
T1 construct: To the receptor fraction of the hippocampus were added a test compound and 0.5 nM of [^3H]; 8-hydroxy-dipropylaminotetralin; from tissue; host or cells: SD rat hippocampus, membrane (receptor) fraction
T1 sequence (P19327 1-422): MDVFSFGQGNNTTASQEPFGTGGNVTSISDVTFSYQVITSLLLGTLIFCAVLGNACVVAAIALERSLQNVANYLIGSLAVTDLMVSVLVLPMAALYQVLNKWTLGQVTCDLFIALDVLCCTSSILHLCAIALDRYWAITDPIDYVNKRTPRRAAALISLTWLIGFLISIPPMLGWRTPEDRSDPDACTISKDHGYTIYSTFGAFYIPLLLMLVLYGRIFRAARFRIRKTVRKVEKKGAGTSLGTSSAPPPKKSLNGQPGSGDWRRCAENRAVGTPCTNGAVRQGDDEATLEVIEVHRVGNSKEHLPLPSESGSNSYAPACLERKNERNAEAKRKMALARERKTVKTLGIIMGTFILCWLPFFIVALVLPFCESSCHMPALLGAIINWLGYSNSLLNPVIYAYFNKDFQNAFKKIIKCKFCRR
The assay can be described thus: Binding test on [3H] 8-hydroxy-dipropylaminotetralin (serotonin 1A receptor). The note with it: [3H] 8-OH-DPAT 0.5 nM, receptor fraction of rat hippocampus; read-out: 5HT1a.

The next assay addresses α1 adrenalin receptor. The assay can be described thus: Binding test on [3H] prazosin (α1 adrenalin receptor). Also on record: species or system rat.
The mark [1] stands for this setting: [3H] prazosin about 0.2 nM, receptor fraction of rat cerebral cortex.

Counter-ions that a name gives are not always drawn. Like-named read-outs stand apart in the source and are kept apart here.

Chain of serotonin 2 receptor (P14842 whole entry): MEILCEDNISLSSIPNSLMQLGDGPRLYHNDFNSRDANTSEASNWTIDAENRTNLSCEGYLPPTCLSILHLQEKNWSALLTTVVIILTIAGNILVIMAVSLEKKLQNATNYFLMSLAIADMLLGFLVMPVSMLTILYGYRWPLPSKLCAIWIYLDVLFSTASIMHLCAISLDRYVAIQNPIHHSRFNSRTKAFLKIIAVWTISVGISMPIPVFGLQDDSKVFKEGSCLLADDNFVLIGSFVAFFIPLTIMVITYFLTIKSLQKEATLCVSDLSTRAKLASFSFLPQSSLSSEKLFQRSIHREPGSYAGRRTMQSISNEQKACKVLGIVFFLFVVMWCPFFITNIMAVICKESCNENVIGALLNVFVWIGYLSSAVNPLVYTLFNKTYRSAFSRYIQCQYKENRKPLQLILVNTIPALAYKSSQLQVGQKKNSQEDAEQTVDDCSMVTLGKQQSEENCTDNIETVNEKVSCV
Description for serotonin 2 receptor: Use was made of SD rats aged 6 to 8 weeks.
The rats were sacrificed by dcapitation to extirpate the cerebra.
The hippocampus was mixed with 50 times (on the wet weight basis) as much a 0.32 M sucrose solution while the cortex was mixed with 10 times as much the same solution. Each mixture was homogenized by using a Teflon glass homogenizer and centrifuged at 1,000×g for 10 min. The supernatant thus obtained was further centrifuged at 20,000×g for 20 min. The obtained precipitate was re-suspended in 50 times (based on the intial wet weight; in the case of the hippocampus) or 10 times (in the case of the cortex) as much a 50 mM Tris hydrochloride (pH 7.4) and incubated at room temperature for 30 min. After centrifuging at 20,000×g for 20 min, the obtained precipitate was further suspended and centrifuged twice each in the same manner. The precipitate thus obtained was suspended in 100 times (based on the initial wet weight; in the case of the hippocampus) or 20 times (in the case of the cortex) as much a 50 mM Tris hydrochloride solution (pH 7.4) to thereby give a receptor fraction. This receptor fraction was stored at −80° C. until using.
(Binding Test on [^3H] Ketanserin)
Next, it was filtered through a glass filter with the use of a cell harvester. After washing the glass filter with 50 mM Tris hydrochloride (pH 7.4), the radioactivity of the receptor was measured with a liquid scintillation counter. The binding detected in the presence of 1 μM of methysergide was referred to as the nonspecific binding.
IC50 was calculated by the probit method, while Ki was determined in accordance with the following formula:
wherein c represents the concentration of the radioisotope-labeled compound, and Kd represents the dissociation constant of the radioisotope-labeled compound with respect to the receptor determined by Scatchard's analysis.

Take `Fc1ccc(CCN2CCC(N3CCc4ccccc43)CC2)cc1F` [Example 11, 1-[1-(3,4-difluorophenethyl)piperidin-4-yl]indoline]: the results for the Ki at serotonin 2 receptor, at serotonin 1A receptor and on α1 adrenalin receptor (setting [1]) were 27.9 nM, 5.7 nM and 147 nM, respectively.
The matching figures for `Fc1ccc(CCCN2CCC(N3CCc4ccccc43)CC2)cc1` [Example 13, 1-[1-(4-fluorophenylpropyl)piperidin-4-yl]indoline]: > 200 nM, 24.2 nM and 188 nM.
The like results for `COc1cccc(CCN2CCC(N3CCc4ccccc43)CC2)c1` [Example 19, 1-[1-(3-methoxyphenethyl)piperidin-4-yl]indoline] were, in that order, 7 nM, 8.8 nM and 55.5 nM.
On to `OCCOc1ccc(CCN2CCC(N3CCc4ccccc43)CC2)cc1` [Example 26, 1-{1-[4-(2-hydroxyethoxy)phenethyl]piperidin-4-yl}indoline], for which the figures for the Ki on serotonin 2 receptor, at serotonin 1A receptor and on α1 adrenalin receptor (setting [1]) were 19.5 nM, 2.9 nM and 51.1 nM, respectively.
The like results for `CS(=O)(=O)NCc1ccc(CCN2CCC(N3CCc4ccccc43)CC2)cc1` [Example 38, 1-[1-(4-methanesulfonylaminomethylphenethyl)piperidin-4-yl]indoline] were, in that order, 21.8 nM, 15 nM and 244 nM.
The like results for `c1ccc2c(c1)CCN2C1CCN(CC2COc3ccccc3O2)CC1` (stereo not drawn) [Example 77, 1-{1-[(1,4-benzodioxan-2-yl)methyl]piperidin-4-yl}indoline] were, in that order, 13.7 nM, 44.5 nM and 249 nM.
The matching figures for `CNOOSCc1ccc2c(c1)N(C1CCN(CCc3ccc(F)cc3)CC1)CC2` [Example 164, 1-[1-(4-fluorophenethyl)piperidin-4-yl]-6-(N-methylsulfamoylmethyl)indoline]: 34.1 nM, 0.54 nM and 638 nM.
For `COc1cccc(Cc2ccc3c(c2)N(C2CCN(CCc4ccc(F)cc4)CC2)CC3)n1` [Example 187, 1-[1-(4-fluorophenethyl)piperidin-4-yl]-6-[1-(2-methoxypyridin-6-yl)methyl]indoline], the Ki was 5.01 nM at serotonin 2 receptor, 65 nM at serotonin 1A receptor and > 200 nM at α1 adrenalin receptor (setting [1]).
The matching figures for `CC1CN(C2CCN(CCc3ccc(F)cc3)CC2)c2ccccc21` (stereo not drawn) [Example 216, 1-[1-(4-fluorophenethyl)piperidin-4-yl]-3-methylindoline]: 42.9 nM, 4.7 nM and 81.6 nM.
With `Nc1nc2cc3c(cc2s1)CCN3C1CCN(CCc2ccc(F)cc2)CC1` [Example 235], the Ki on serotonin 2 receptor was found to be 14.6 nM; on serotonin 1A receptor, 0.2 nM; at α1 adrenalin receptor (setting [1]), 77.8 nM.
Consider `COc1ccc2c(c1)C(N1CCN(CCc3ccc(F)cc3)CC1)CC2` (stereo not drawn) [Example 250, 1-{4-[2-(4-fluorophenyl)ethyl]piperazin-1-yl}-6-methoxyindan Hydrochloride], for which the Ki on serotonin 2 receptor was found to be 18.8 nM; at serotonin 1A receptor it was 1.6 nM; on α1 adrenalin receptor, 263 nM.
The matching figures for `Fc1ccc(CCN2CCN(C3CCCc4cnccc43)CC2)cc1` (stereo not drawn) [Example 283, 5-{4-[2-(4-fluorophenyl)ethyl]piperazin-1-yl}-5,6,7,8-tetrahydroisoquinoline Hydrochloride]: 40.9 nM, 39.5 nM and 197 nM.
`COc1ccc2c(c1)N(C1CCCN(CCc3ccc(F)cc3)CC1)CC2` (stereo not drawn) [Example 291, 1-[1-(4-fluorophenethyl)homopiperidin-4-yl]-6-methoxyindoline]: the Ki was 101 nM at serotonin 2 receptor, 6.9 nM at serotonin 1A receptor and 172 nM at α1 adrenalin receptor (setting [1]).
The like results for `COc1ccc2c(c1)N(C1CCN(CCc3ccc(F)cc3)C1)CC2` (stereo not drawn) [Example 292, 1-[1-(4-fluorophenethyl)pyrrolidin-3-yl]-6-methoxyindoline] were, in that order, 58.8 nM, 92 nM and 178 nM.
The like results for `O=C(Cc1ccc2ccn(C3CCN(CCc4ccc(F)cc4)CC3)c2c1)N1CCCC1` [Example 298, 1-[1-(4-fluorophenethyl)piperidin-4-yl]-6-(tetramethylenecarbamoylmethyl)indole Oxalate] were, in that order, 21.3 nM, 1.86 nM and 27.9 nM.
The like results for `O=C(Cc1ccc2ccn(C3CCN(CCc4ccc(F)cc4)CC3)c2c1)N(CCO)CCO` [Example 303, 1-[1-(4-fluorophenethyl)piperidin-4-yl]-6-[bis(2-hydroxyethyl)]carbamoylmethylindole Oxalate] were, in that order, 35.8 nM, 3.6 nM and 307 nM.
As for `NC(=O)CNC(=O)Cc1ccc2ccn(C3CCN(CCc4ccc(F)cc4)CC3)c2c1` [Example 306, 1-[1-(4-fluorophenethyl)piperidin-4-yl]-6-(carbamoylmethyl)carbamoylmethylindole Oxalate], the Ki is 3.87 nM at serotonin 2 receptor, 2.82 nM on serotonin 1A receptor and 148 nM on α1 adrenalin receptor (setting [1]).
The matching figures for `N#CCNC(=O)Cc1ccc2ccn(C3CCN(CCc4ccc(F)cc4)CC3)c2c1` [Example 308, 1-[1-(4-fluorophenethyl)piperidin-4-yl]-6-cyanomethylcarbamoylmethylindole Oxalate]: 3.84 nM, 0.73 nM and 59.4 nM.
The matching figures for `CCNC(=O)CCc1ccc2ccn(C3CCN(CCc4ccc(F)cc4)CC3)c2c1` [Example 311, 1-[1-(4-fluorophenethyl)piperidin-4-yl]-6-[2-(ethylcarbamoyl)ethyl]indole Oxalate]: 46.4 nM, 1.08 nM and 85 nM.
The like results for `O=C(Cc1ccc2ccn(C3CCN(CCc4ccc(F)cc4)CC3)c2c1)NCCN1CCCC1` [Example 312, 1-[1-(4-fluorophenethyl)piperidin-4-yl]-6-[2-(pyrrolidin-1-yl)ethyl]carbamoylmethylindole Oxalate] were, in that order, 0.56 nM, 8.27 nM and 53.3 nM.
Take `O=C(Cc1ccc2ccn(C3CCN(CCc4ccc(F)cc4)CC3)c2c1)NCCN1CCOCC1` [Example 313, 1-[1-(4-fluorophenethyl)piperidin-4-yl]-6-[2-(morpholin-4-yl)ethyl]carbamoylmethylindole Oxalate]: the results for the Ki on serotonin 2 receptor, at serotonin 1A receptor and at α1 adrenalin receptor (setting [1]) were 1.58 nM, 13.1 nM and 144 nM, respectively.
The matching figures for `O=C(Cc1ccc2ccn(C3CCN(CCc4ccc(F)cc4)CC3)c2c1)NCc1ccncc1` [Example 314, 1-[1-(4-fluorophenethyl)piperidin-4-yl]-6-(pyridin-4-yl)methylcarbamoylmethylindole]: 1.1 nM, 0.72 nM and 51.3 nM.
The matching figures for `COc1ccc(C(=O)c2ccc3ccn(C4CCN(CCc5ccc(F)cc5)CC4)c3c2)cn1` [Example 317, 1-[1-(4-fluorophenethyl)piperidin-4-yl]-6-(2-methoxypyridin-5-ylcarbonyl)indole Oxalate]: > 20 nM, 0.76 nM and 400 nM.
